Reference: PubChem BioAssay (NCI)
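At the GI50, growth is halved. At the TGI there is no net growth.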

What was measured:
Experiment in all cases: NCI anticancer screen, dose series, 384-well format
[1] = tested on: 786-0 renal
[2] = tested on: A498 renal
[3] = tested on: A549 NSCLC
[4] = tested on: ACHN renal
[5] = tested on: BT-549 breast
[6] = tested on: CAKI-1 renal
[7] = tested on: CCRF-CEM leukemia
[8] = tested on: COLO 205 colon
[9] = tested on: DU-145 prostate
[10] = tested on: EKVX NSCLC
[11] = tested on: HCC-2998 colon
[12] = tested on: HCT-15 colon
[13] = tested on: HL-60(TB) leukemia
[14] = tested on: HOP-62 NSCLC
[15] = tested on: HOP-92 NSCLC
[16] = tested on: HS 578T breast
[17] = tested on: HT29 colon
[18] = tested on: IGROV1 ovarian
[19] = tested on: K-562 leukemia
[20] = tested on: KM12 colon
[21] = tested on: LOX IMVI melanoma
[22] = tested on: M14 melanoma
[23] = tested on: MALME-3M melanoma
[24] = tested on: MCF7 breast
[25] = tested on: MDA-MB-231 breast
[26] = tested on: MDA-MB-435 melanoma
[27] = tested on: MDA-MB-468 breast
[28] = tested on: MOLT-4 leukemia
[29] = tested on: NCI-H226 lung
[30] = tested on: NCI-H23 lung
[31] = tested on: NCI-H322M lung
[32] = tested on: NCI-H460 NSCLC
[33] = tested on: NCI-H522 lung
[34] = tested on: NCI/ADR-RES ovarian
[35] = tested on: OVCAR-3 ovarian
[36] = tested on: OVCAR-4 ovarian
[37] = tested on: OVCAR-5 ovarian
[38] = tested on: OVCAR-8 ovarian
[39] = tested on: PC-3 prostate
[40] = tested on: RPMI-8226 leukemia
[41] = tested on: RXF 393 renal
[42] = tested on: SF-268 CNS
[43] = tested on: SF-295 CNS
[44] = tested on: SF-539 CNS
[45] = tested on: SK-MEL-28 melanoma
[46] = tested on: SK-MEL-5 melanoma
[47] = tested on: SK-OV-3 ovarian
[48] = tested on: SN12C renal
[49] = tested on: SNB-19 CNS
[50] = tested on: SNB-75 CNS
[51] = tested on: SR leukemia
[52] = tested on: SW-620 colon
[53] = tested on: T-47D breast
[54] = tested on: TK-10 renal
[55] = tested on: UACC-257 melanoma
[56] = tested on: UACC-62 melanoma
[57] = tested on: UO-31 renal

C[C@@H](NC(=O)c1ccc(F)cc1)c1ccc2c(c1)CCN2C(=O)C1CCOCC1
GI50 [1]: > 100 µM
TGI [1]: > 100 µM
GI50 [2]: > 100 µM
TGI [2]: > 100 µM
GI50 [3]: > 100 µM
TGI [3]: > 100 µM
GI50 [4]: > 100 µM
TGI [4]: > 100 µM
GI50 [5]: > 100 µM
TGI [5]: > 100 µM
GI50 [6]: > 100 µM
TGI [6]: > 100 µM
GI50 [7]: > 100 µM
TGI [7]: > 100 µM
GI50 [8]: > 100 µM
TGI [8]: > 100 µM
GI50 [9]: > 100 µM
TGI [9]: > 100 µM
GI50 [10]: > 100 µM
TGI [10]: > 100 µM
GI50 [11]: > 100 µM
TGI [11]: > 100 µM
GI50 [12]: > 100 µM
TGI [12]: > 100 µM
GI50 [13]: > 100 µM
TGI [13]: > 100 µM
GI50 [14]: > 100 µM
TGI [14]: > 100 µM
GI50 [15]: > 100 µM
TGI [15]: > 100 µM
GI50 [16]: > 100 µM
TGI [16]: > 100 µM
GI50 [17]: > 100 µM
TGI [17]: > 100 µM
GI50 [18]: > 100 µM
TGI [18]: > 100 µM
GI50 [19]: > 100 µM
TGI [19]: > 100 µM
GI50 [20]: > 100 µM
TGI [20]: > 100 µM
GI50 [21]: > 100 µM
TGI [21]: > 100 µM
GI50 [22]: > 100 µM
TGI [22]: > 100 µM
GI50 [23]: > 100 µM
TGI [23]: > 100 µM
GI50 [24]: > 100 µM
TGI [24]: > 100 µM
GI50 [25]: > 100 µM
TGI [25]: > 100 µM
GI50 [26]: > 100 µM
TGI [26]: > 100 µM
GI50 [27]: 34.4 µM
TGI [27]: > 100 µM
GI50 [28]: > 100 µM
TGI [28]: > 100 µM
GI50 [29]: > 100 µM
TGI [29]: > 100 µM
GI50 [30]: > 100 µM
TGI [30]: > 100 µM
GI50 [31]: > 100 µM
TGI [31]: > 100 µM
GI50 [32]: > 100 µM
TGI [32]: > 100 µM
GI50 [33]: > 100 µM
TGI [33]: > 100 µM
GI50 [34]: > 100 µM
TGI [34]: > 100 µM
GI50 [35]: > 100 µM
TGI [35]: > 100 µM
GI50 [36]: 80.7 µM
TGI [36]: > 100 µM
GI50 [37]: > 100 µM
TGI [37]: > 100 µM
GI50 [38]: > 100 µM
TGI [38]: > 100 µM
GI50 [39]: > 100 µM
TGI [39]: > 100 µM
GI50 [40]: 91.4 µM
TGI [40]: > 100 µM
GI50 [41]: > 100 µM
TGI [41]: > 100 µM
GI50 [42]: > 100 µM
TGI [42]: > 100 µM
GI50 [43]: > 100 µM
TGI [43]: > 100 µM
GI50 [44]: > 100 µM
TGI [44]: > 100 µM
GI50 [45]: > 100 µM
TGI [45]: > 100 µM
GI50 [46]: > 100 µM
TGI [46]: > 100 µM
GI50 [47]: > 100 µM
TGI [47]: > 100 µM
GI50 [48]: > 100 µM
TGI [48]: > 100 µM
GI50 [49]: > 100 µM
TGI [49]: > 100 µM
GI50 [50]: > 100 µM
TGI [50]: > 100 µM
GI50 [51]: > 100 µM
TGI [51]: > 100 µM
GI50 [52]: > 100 µM
TGI [52]: > 100 µM
GI50 [53]: 58.6 µM
TGI [53]: > 100 µM
GI50 [54]: > 100 µM
TGI [54]: > 100 µM
GI50 [55]: > 100 µM
TGI [55]: > 100 µM
GI50 [56]: > 100 µM
TGI [56]: > 100 µM
GI50 [57]: > 100 µM
TGI [57]: > 100 µM
